For five substances, IC50 results are on record in patent US11827628B2, “Compositions and methods for inhibition of the JAK pathway” (Rigel Pharmaceuticals, Inc., priority 2005, dated 2023).

Assay [1] concerns Primary human T-cells. Description: Primary Human T-Cell Proliferation Assay Stimulated with IL-2 (CellTiter-Glo). The assay is classed as cell-based. The note with it: primary human T-cells stimulated with IL-2, proliferation; read-out: IC50, Example 42. A digest of the protocol: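 IC50 derived from CellTiter-Glo ATP signal after 72 hours of IL-2-driven proliferation at 37° C. Cells: primary human T-cells from blood, stimulated beforehand 3-4 days on anti-CD3/anti-CD28 with IL-2, then rested from IL-2 before compound exposure in duplicate; IL-2-free wells served as unstimulated control.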
For orientation: In ATP-based viability assays light output follows the ATP content of the culture.

Assay [2] concerns IL-4 stimulated expression of CD23 in human Ramos B cells (JAK-1 and JAK-3). Description: Assay for Ramos B-Cell Line Stimulated with IL-4 (CD23 upregulation, FACS). The assay is classed as cell-based. The note with it: Ramos B cells stimulated with IL-4, CD23 expression by FACS; read-out: IC50, Example 41. The essentials:
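Read-out: anti-CD23-PE flow cytometry on Ramos B cells, giving IC50. Cells (5×10^4 per point, RPMI + 5% serum) get compound or DMSO for 1 h at 37 °C, then IL-4 50 units/mL final for 20-24 h.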
(In general: In flow cytometry, cells or beads pass a laser one at a time.)

Regarding “N2-(3-Aminosulphonylphenyl)-5-fluoro-N4-[4-(3-pyridinylmethyl)benzo[1,4]oxazin-7-yl]-2,4-pyrimidinediamine [VII-55]”, the results for the IC50 in assay [1] and in assay [2] were 599 nM and 184 nM, respectively.

For the substance “N2-(3-Aminosulphonylphenyl)-5-fluoro-N4-[4-(3-pyridinylmethyl)benzo[1,4]oxazin-7-yl]-2,4-pyrimidinediamine [VII-56]”, the 50% inhibitory concentration (IC50) (commonly the concentration at which inhibition is half-maximal) in assay [1] is 1280 nM; in assay [2] it was 185 nM.

For “N2-[3-Aminosulfonyl-4-(4-methylpiperazine-1-yl)phenyl]-N4-(3-cyanomethylene-1H-indol-6-yl)-5-fluoro-2,4-pyrimidinediamine [IX-17]”, the IC50 in assay [1] was determined as 815 nM; in assay [2], 108 nM.

Regarding “N2-[3-Aminosulfonyl-4-(4-methylpiperazine-1-yl)phenyl]-N4-(3-cyanomethylene-1H-indol-7-yl)-5-fluoro-2,4-pyrimidinediamine [IX-18]”, the results for the concentration for half-maximal inhibition (IC50) in assay [1] and in assay [2] were 2400 nM and 168 nM, respectively.

“N4-(3-Chloro-4-cyanomethyleneoxyphenyl)-5-fluoro-N2-(5-methyl-2H-1,1-dioxide-1,2,4-benzothiadiazin-7-yl)-2,4-pyrimidinediamine [VIII-2]”: the IC50 in assay [1] was found to be 409 nM; in assay [2] it was 178 nM.
